Assay results reported in ChEMBL document CHEMBL3046193, “Promising antitumor effect of alpha-tocopheryl succinate in human colon and liver cancer cells” (Med Chem Res, 2012).
Active and inactive are the calls of the source. The rule behind the calls is not given here.

Key:
[1] = tested on: MCF7; experiment: Cytotoxicity against Homo sapiens (human) MCF7 cells at 40 uM after 48 hr by SRB assay; format: functional
[2] = tested on: HepG2; experiment: Cytotoxicity against Homo sapiens (human) HepG2 cells at 40 uM after 72 hr by SRB assay; format: functional
[3] = tested on: HeLa; experiment: Cytotoxicity against Homo sapiens (human) HeLa cells at 40 uM after 72 hr by SRB assay; format: functional
[4] = tested on: HCT-116; experiment: Cytotoxicity against Homo sapiens (human) HCT116 cells at 40 uM after 72 hr by SRB assay; format: functional
[5] = tested on: MCF7; experiment: Cytotoxicity against Homo sapiens (human) MCF7 cells at 20 uM after 72 hr by SRB assay; format: functional, cell-based
[6] = tested on: HCT-116; experiment: Cytotoxicity against Homo sapiens (human) HCT116 cells at 20 uM after 72 hr by SRB assay; format: functional, cell-based
[7] = tested on: HeLa; experiment: Cytotoxicity against Homo sapiens (human) HeLa cells at 20 uM after 72 hr by SRB assay; format: functional, cell-based
[8] = tested on: HepG2; experiment: Cytotoxicity against Homo sapiens (human) HepG2 cells at 20 uM after 72 hr by SRB assay; format: functional, cell-based
[9] = tested on: HCT-116; experiment: Induction of cell cycle arrest in Homo sapiens (human) HCT116 cells assessed as increase in G0/G1 phase cells at 52.3 uM at 48 hr by flow cytometric analysis relative to control; format: functional
[10] = tested on: HCT-116; experiment: Induction of cell cycle arrest in Homo sapiens (human) HCT116 cells assessed as increase in G0/G1 phase cells at 52.3 uM at 24 hr by flow cytometric analysis relative to control; format: functional
[11] = tested on: HCT-116; experiment: Induction of cell cycle arrest in Homo sapiens (human) HCT116 cells assessed as G0/G1 phase cells at 52.3 uM at 16 hr by flow cytometric analysis (reference value: 58.2 +/- 3.7 cells); format: functional
[12] = tested on: MCF7; experiment: Cytotoxicity against Homo sapiens (human) MCF7 cells at 20 to 100 uM by SRB assay; format: functional, cell-based; conditions: TDE = time-dependent effect
[13] = tested on: HeLa; experiment: Cytotoxicity against Homo sapiens (human) HeLa cells at 20 to 100 uM by SRB assay; format: functional, cell-based; conditions: TDE = time-dependent effect
[14] = tested on: HepG2; experiment: Cytotoxicity against Homo sapiens (human) HepG2 cells at 20 to 100 uM by SRB assay; format: functional, cell-based; conditions: TDE = time-dependent effect
[15] = tested on: HCT-116; experiment: Cytotoxicity against Homo sapiens (human) HCT116 cells at 20 to 100 uM by SRB assay; format: functional, cell-based; conditions: TDE = time-dependent effect
[16] = tested on: MCF7; experiment: Cytotoxicity against Homo sapiens (human) MCF7 cells after 24 to 72 hr by SRB assay; format: functional, cell-based
[17] = tested on: HeLa; experiment: Cytotoxicity against Homo sapiens (human) HeLa cells after 24 to 72 hr by SRB assay; format: functional, cell-based
[18] = tested on: HepG2; experiment: Cytotoxicity against Homo sapiens (human) HepG2 cells after 24 to 72 hr by SRB assay; format: functional, cell-based
[19] = tested on: HCT-116; experiment: Cytotoxicity against Homo sapiens (human) HCT116 cells after 24 to 72 hr by SRB assay; format: functional, cell-based
[20] = tested on: HepG2; experiment: Cytotoxicity against Homo sapiens (human) HepG2 cells after 48 hr by SRB assay; format: functional, cell-based; conditions: HepG2, 48 h
[21] = tested on: HCT-116; experiment: Cytotoxicity against Homo sapiens (human) HCT116 cells after 48 hr by SRB assay; format: functional, cell-based; conditions: HCT-116, 48 h
[22] = tested on: MCF7; experiment: Cytotoxicity against Homo sapiens (human) MCF7 cells at 100 uM after 24 hr by SRB assay; format: functional
[23] = tested on: HepG2; experiment: Cytotoxicity against Homo sapiens (human) HepG2 cells at 100 uM after 24 hr by SRB assay; format: functional
[24] = tested on: HeLa; experiment: Cytotoxicity against Homo sapiens (human) HeLa cells at 100 uM after 24 hr by SRB assay; format: functional
[25] = tested on: HCT-116; experiment: Cytotoxicity against Homo sapiens (human) HCT116 cells at 100 uM after 24 hr by SRB assay; format: functional
[26] = tested on: HepG2; experiment: Induction of cell cycle arrest in Homo sapiens (human) HepG2 cells assessed as increase in G0/G1 phase cells at 55 uM at 48 hr by flow cytometric analysis relative to control; format: functional
[27] = tested on: HepG2; experiment: Induction of cell cycle arrest in Homo sapiens (human) HepG2 cells assessed as increase in G0/G1 phase cells at 55 uM at 24 hr by flow cytometric analysis relative to control; format: functional
[28] = tested on: HepG2; experiment: Induction of cell cycle arrest in Homo sapiens (human) HepG2 cells assessed as G0/G1 phase cells at 55 uM at 16 hr by flow cytometric analysis (reference value: 50.4 +/- 1.7 cells); format: functional
[29] = tested on: HCT-116; experiment: Induction of cell cycle arrest in Homo sapiens (human) HCT116 cells assessed as G2/M phase cells at 52.3 uM at 48 hr by flow cytometric analysis (reference value: 9.7 +/- 0.8 cells); format: functional
[30] = tested on: HCT-116; experiment: Induction of cell cycle arrest in Homo sapiens (human) HCT116 cells assessed as G2/M phase cells at 52.3 uM at 24 hr by flow cytometric analysis (reference value: 9.7 +/- 0.8 cells); format: functional
[31] = tested on: HCT-116; experiment: Induction of cell cycle arrest in Homo sapiens (human) HCT116 cells assessed as G2/M phase cells at 52.3 uM at 16 hr by flow cytometric analysis (reference value: 9.7 +/- 0.8 cells); format: functional
[32] = tested on: HCT-116; experiment: Induction of cell cycle arrest in Homo sapiens (human) HCT116 cells assessed as S phase cells at 52.3 uM at 48 hr by flow cytometric analysis (reference value: 33.6 +/- 0.6 cells); format: functional
[33] = tested on: HCT-116; experiment: Induction of cell cycle arrest in Homo sapiens (human) HCT116 cells assessed as S phase cells at 52.3 uM at 24 hr by flow cytometric analysis (reference value: 33.6 +/- 0.6 cells); format: functional
[34] = tested on: HCT-116; experiment: Induction of cell cycle arrest in Homo sapiens (human) HCT116 cells assessed as S phase cells at 52.3 uM at 16 hr by flow cytometric analysis (reference value: 33.6 +/- 0.6 cells); format: functional
[35] = tested on: HepG2; experiment: Antiangiogenic activity against Homo sapiens (human) HepG2 cells assessed as reduction in VEGF level at 55 uM from 24 to 48 hr by ELISA relative to control; format: functional, cell-based
[36] = tested on: HCT-116; experiment: Antiangiogenic activity against Homo sapiens (human) HCT116 cells assessed as reduction in VEGF level at 52.3 uM after 48 hr by ELISA relative to control; format: functional; set-up: scale not given: the % may be the effect or the level left
[37] = tested on: HCT-116; experiment: Antiangiogenic activity against Homo sapiens (human) HCT116 cells assessed as reduction in VEGF level at 52.3 uM after 24 hr by ELISA relative to control; format: functional; set-up: scale not given: the % may be the effect or the level left
[38] = tested on: HepG2; experiment: Cytotoxicity against Homo sapiens (human) HepG2 cells assessed as DNA fragmentation at 55 uM from 24 to 48 hr by agarose gel electrophoresis; format: functional, cell-based
[39] = tested on: HCT-116; experiment: Cytotoxicity against Homo sapiens (human) HCT116 cells assessed as DNA fragmentation at […] after 48 hr by agarose gel electrophoresis; format: functional, cell-based
[40] = tested on: HepG2; experiment: Induction of apoptosis in Homo sapiens (human) HepG2 cells assessed as caspase9 cleavage at 55 uM at 16 hr by Western blot analysis; format: functional, cell-based
[41] = tested on: HCT-116; experiment: Induction of apoptosis in Homo sapiens (human) HCT116 cells assessed as caspase9 cleavage at 52.3 uM at 16 hr by Western blot analysis; format: functional, cell-based
[42] = tested on: HepG2; experiment: Induction of apoptosis in Homo sapiens (human) HepG2 cells assessed as effect on Bcl2 level at 55 uM from 3 to 24 hr by Western blot analysis; format: functional, cell-based
[43] = tested on: HCT-116; experiment: Induction of apoptosis in Homo sapiens (human) HCT116 cells assessed as effect on Bcl2 level at 52.3 uM from 3 to 24 hr by Western blot analysis; format: functional, cell-based
[44] = tested on: HepG2; experiment: Induction of cell cycle arrest in Homo sapiens (human) HepG2 cells assessed as G2/M phase cells at 55 uM at 48 hr by flow cytometric analysis (reference value: 4 +/- 0.9 cells); format: functional
[45] = tested on: HepG2; experiment: Induction of cell cycle arrest in Homo sapiens (human) HepG2 cells assessed as G2/M phase cells at 55 uM at 24 hr by flow cytometric analysis (reference value: 4 +/- 0.9 cells); format: functional
[46] = tested on: HepG2; experiment: Induction of cell cycle arrest in Homo sapiens (human) HepG2 cells assessed as G2/M phase cells at 55 uM at 16 hr by flow cytometric analysis (reference value: 4 +/- 0.9 cells); format: functional
[47] = tested on: HepG2; experiment: Induction of cell cycle arrest in Homo sapiens (human) HepG2 cells assessed as S phase cells at 55 uM at 48 hr by flow cytometric analysis (reference value: 46.4 +/- 3.6 cells); format: functional
[48] = tested on: HepG2; experiment: Induction of cell cycle arrest in Homo sapiens (human) HepG2 cells assessed as S phase cells at 55 uM at 24 hr by flow cytometric analysis (reference value: 46.4 +/- 3.6 cells); format: functional
[49] = tested on: HepG2; experiment: Induction of cell cycle arrest in Homo sapiens (human) HepG2 cells assessed as S phase cells at 55 uM at 16 hr by flow cytometric analysis (reference value: 46.4 +/- 3.6 cells); format: functional

Cc1c(C)c2c(c(C)c1OC(=O)CCC(=O)O)CC[C@@](C)(CCC[C@H](C)CCC[C@H](C)CCCC(C)C)O2 [(+)-ALPHA-TOCOPHERYL SUCCINATE]
Activity [1]: 14%
Activity [2]: 15%
Activity [3]: 20%
Activity [4]: 48%
Activity [5]: inactive
Activity [6]: inactive
Activity [7]: inactive
Activity [8]: inactive
Activity [9]: 47.3%
Activity [10]: 32.3%
Activity [11]: 58.7%
Activity [12]: tde
Activity [13]: tde
Activity [14]: tde
Activity [15]: tde
Activity [16]: Dose-dependent effect
Activity [17]: Dose-dependent effect
Activity [18]: Dose-dependent effect
Activity [19]: Dose-dependent effect
IC50 [20]: 55 µM
IC50 [21]: 52.3 µM
Activity [22]: 45%
Activity [23]: 55%
Activity [24]: 65%
Activity [25]: 47%
Activity [26]: 62.1%
Activity [27]: 27.4%
Activity [28]: 60%
Activity [29]: 2.7%
Activity [30]: 4.4%
Activity [31]: 9.5%
Activity [32]: 13.4%
Activity [33]: 19.9%
Activity [34]: 32.7%
Activity [35]: Active
Activity [36]: 54%
Activity [37]: 39%
Activity [38]: Active
Activity [39]: Active
Activity [40]: Active
Activity [41]: Active
Activity [42]: inactive
Activity [43]: inactive
Activity [44]: 1.8%
Activity [45]: 2.1%
Activity [46]: 2.9%
Activity [47]: 15.4%
Activity [48]: 33.01%
Activity [49]: 38.4%
